{"source": "patent US10005792B2", "about": "“Aminoindane-, aminotetrahydronaphthalene- and aminobenzocyclobutane-derived PRMT5-inhibitors” (CTXT PTY LTD, priority 2014, dated 2018)", "note": "Where a name gives a salt, the structure may show the parent alone.", "data": [{"biological_target": "Full-length PRMT5 enzyme co-expressed with MEP50 (Homo sapiens (Human), UniProt O14744)", "sequence (O14744 whole entry)": "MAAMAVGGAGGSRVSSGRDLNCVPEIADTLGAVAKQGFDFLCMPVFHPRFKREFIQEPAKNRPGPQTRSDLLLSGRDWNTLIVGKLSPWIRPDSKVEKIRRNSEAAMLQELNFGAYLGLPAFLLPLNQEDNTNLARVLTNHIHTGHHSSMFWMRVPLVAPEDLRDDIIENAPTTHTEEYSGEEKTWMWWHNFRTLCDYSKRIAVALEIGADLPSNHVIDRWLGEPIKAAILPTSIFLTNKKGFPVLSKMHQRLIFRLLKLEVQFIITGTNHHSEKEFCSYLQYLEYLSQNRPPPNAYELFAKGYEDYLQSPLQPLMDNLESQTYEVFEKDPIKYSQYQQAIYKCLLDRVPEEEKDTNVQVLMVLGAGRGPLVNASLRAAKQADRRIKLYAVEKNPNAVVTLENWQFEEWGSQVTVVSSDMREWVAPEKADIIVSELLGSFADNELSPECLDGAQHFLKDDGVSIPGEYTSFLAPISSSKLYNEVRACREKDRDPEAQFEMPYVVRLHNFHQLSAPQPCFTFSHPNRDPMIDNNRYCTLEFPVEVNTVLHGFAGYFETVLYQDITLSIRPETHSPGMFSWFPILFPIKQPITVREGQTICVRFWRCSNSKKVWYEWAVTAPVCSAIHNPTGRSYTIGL", "sequence (Q9BQA1 whole entry partner)": "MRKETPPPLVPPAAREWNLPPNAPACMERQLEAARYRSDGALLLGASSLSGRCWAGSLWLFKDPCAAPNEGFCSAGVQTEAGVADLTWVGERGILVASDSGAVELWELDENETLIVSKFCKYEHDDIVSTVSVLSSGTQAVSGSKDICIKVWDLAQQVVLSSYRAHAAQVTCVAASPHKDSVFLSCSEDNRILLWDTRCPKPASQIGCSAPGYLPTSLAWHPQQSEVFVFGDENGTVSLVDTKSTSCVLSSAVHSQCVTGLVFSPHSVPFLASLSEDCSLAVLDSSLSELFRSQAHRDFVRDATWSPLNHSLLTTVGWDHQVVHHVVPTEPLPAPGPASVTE", "test": "Revised PRMT5 Biochemical Assay", "conditions": "1 μM histone H4 derived peptide substrate, 1 μM S-Adenosyl methionine, 4 hours at 37 degree Celsius, Transcreener EPIGEN fluorescence polarisation", "procedure": "Compounds of the invention may be tested for in vitro activity in the following assay: A histone H4 derived peptide is used as substrate (amino acid sequence: […]NH2). Full-length PRMT5 enzyme (NCBI Reference sequence NP-006100.2) was co-expressed with Hiss-MEP50 in insect cells and purified via Nickel immobilized metal affinity and gel filtration chromatography (“the enzyme”).\nThe 6 μL reactions are run in Greiner brand black 384-well low volume assay plates. All reactions contained assay buffer (phosphate buffered saline, 0.01% (v/v) Tween-20, 0.01% (w/v) albumin from chicken egg white, 1 mM Dithiothreitol, 1 μM peptide substrate, 1 μM S-Adenosyl methionine, and 15 ng/reaction enzyme, with the enzyme being omitted from negative control reactions. Compounds were added in a volume of 100 nL from dilution series prepared in DMSO, positive and negative control reactions receiving the same volume DMSO without compound. The plates were sealed with adhesive seals and incubated for 4 hours at 37 degree Celsius. Reaction progress was measured using the Transcreener™ EPIGEN methyltransferase assay (BellBrook Labs, Madison, Wis.) as recommended by the manufacturer. To each reaction 2 μL detection mix were added, containing coupling enzymes, fluorescence polarisation tracer, and AMP antibody. Plates were incubated for 90 minutes before being read on a PerkinElmer EnVision™ plate reader in fluorescence polarisation mode. IC50 values were obtained from the raw readings by calculating percent inhibition (% I) for each reaction relative to controls on the same plate (% I=(I−CN)/(CP−CN) where CN/CP are the averages of the negative/positive reactions, respectively), then fitting the % I data vs. compound concentration [I] to % I=([…]) where A is the lower asymptote, B is the upper asymptote, C is the IC50 value, and D is the slope.", "units": {"IC50": "nM"}, "values": [{"smiles": "O=C(NC[C@@H](O)CNC1Cc2ccccc2C1)c1ccc(C(=O)N2CCC(CO)CC2)cc1", "note": "[Compound 61, (S)-N-(3-((2,3-dihydro-1H-inden-2-yl)amino)-2-hydroxypropyl)-4-(4-(hydroxymethyl)piperidine-1-carbonyl)benzamide]", "IC50": 180}, {"smiles": "O=C(NC[C@@H](O)CNC1Cc2ccccc2C1)c1cccc(C(=O)N2CCOCC2)c1", "note": "[Compound 62, (S)-N-(3-((2,3-dihydro-1H-inden-2-yl)amino)-2-hydroxypropyl)-3-(morpholine-4-carbonyl)benzamide]", "IC50": 6920}, {"smiles": "O=C(NCC(O)CNC1Cc2ccccc2C1)c1ccc(N2CCCCC2=O)cc1", "note": "(stereo not drawn) [Compound 63, N-(3-((2,3-Dihydro-1H-inden-2-yl)amino)-2-hydroxypropyl)-4-(2-oxopiperidin-1-yl)benzamide]", "IC50": 7300}, {"smiles": "CC(=O)N1CCC(Nc2ccc(C(=O)NCC(O)CNC3Cc4ccccc4C3)cc2)CC1", "note": "(stereo not drawn) [Compound 64, 4-((1-Acetylpiperidin-4-yl)amino)-N-(3-((2,3-dihydro-1H-inden-2-yl)amino)-2-hydroxypropyl) benzamide]", "IC50": 1100}, {"smiles": "O=C(NC[C@@H](O)CNC1Cc2ccccc2C1)c1ccc(C(=O)N2CCS(=O)(=O)CC2)cc1", "note": "[Compound 65, (S)—N-(3-((2,3-dihydro-1H-inden-2-yl)amino)-2-hydroxypropyl)-4-(1,1-dioxidothiomorpholine-4-carbonyl)benzamide]", "IC50": 1300}, {"smiles": "O=C(NC[C@@H](O)CNC1Cc2ccccc2C1)c1ccc(C(=O)N2CC3(COC3)C2)cc1", "note": "[Compound 66, (S)-N-(3-((2,3-dihydro-1H-inden-2-yl)amino)-2-hydroxypropyl)-4-(2-oxa-6-azaspiro[3.3]heptane-6-carbonyl)benzamide]", "IC50": 1560}, {"smiles": "O=C(NC[C@@H](O)CNC1Cc2ccccc2C1)c1ccc(C(=O)N2CCCCC2)nc1", "note": "[Compound 68, (S)-N-(3-((2,3-dihydro-1H-inden-2-yl)amino)-2-hydroxypropyl)-6-(piperidine-1-carbonyl)nicotinamide]", "IC50": 6170}, {"smiles": "O=C(NC[C@H](O)CNC1Cc2ccccc2C1)c1ccc(C(=O)N2CCCCC2)nc1", "note": "[Compound 69, (R)-N-(3-((2,3-dihydro-1H-inden-2-yl)amino)-2-hydroxypropyl)-6-(piperidine-1-carbonyl)nicotinamide]", "IC50": 10000}, {"smiles": "CC[C@@H]1COCCN1C(=O)c1ccc(C(=O)NC[C@@H](O)CNC2Cc3ccccc3C2)cc1", "note": "[Compound 71, N-((S)-3-((2,3-dihydro-1H-inden-2-yl)amino)-2-hydroxypropyl)-4-((R)-3-ethylmorpholine-4-carbonyl)benzamide]", "IC50": 237}, {"smiles": "CC1(C)CN(C(=O)c2ccc(C(=O)NC[C@@H](O)CNC3Cc4ccccc4C3)cc2)CCO1", "note": "[Compound 72, (S)-N-(3-((2,3-dihydro-1H-inden-2-yl)amino)-2-hydroxypropyl)-4-(2,2-dimethylmorpholine-4-carbonyl)benzamide]", "IC50": 341}, {"smiles": "O=C(NC[C@@H](O)CNC1Cc2ccccc2C1)c1ccc(CC(=O)N2CCCCC2)nc1", "note": "[Compound 78, (S)-N-(3-((2,3-dihydro-1H-inden-2-yl)amino)-2-hydroxypropyl)-6-(2-oxo-2-(piperidin-1-yl)ethyl)nicotinamide]", "IC50": 5580}, {"smiles": "COCC1CCCCN1C(=O)c1ccc(C(=O)NC[C@@H](O)CNC2Cc3ccccc3C2)cc1", "note": "(stereo partly drawn) [Compound 80, N-((S)-3-((2,3-dihydro-1H-inden-2-yl)amino)-2-hydroxypropyl)-4-(2-(methoxymethyl)piperidine-1-carbonyl)benzamide]", "IC50": 253}, {"smiles": "COC1CCN(C(=O)c2ccc(C(=O)NC[C@@H](O)CNC3Cc4ccccc4C3)cc2)C1", "note": "(stereo partly drawn) [Compound 81, N-((S)-3-((2,3-dihydro-1H-inden-2-yl)amino)-2-hydroxypropyl)-4-(3-methoxypyrrolidine-1-carbonyl)benzamide]", "IC50": 1370}, {"smiles": "COC1CCN(C(=O)c2ccc(C(=O)NC[C@@H](O)CNC3Cc4ccccc4C3)cc2)CC1", "note": "[Compound 86, (S)-N-(3-((2,3-dihydro-1H-inden-2-yl)amino)-2-hydroxypropyl)-4-(4-methoxypiperidine-1-carbonyl)benzamide]", "IC50": 682}, {"smiles": "COc1cc(CC(=O)N2CCOCC2)ccc1C(=O)NC[C@@H](O)CNC1Cc2ccccc2C1", "note": "[Compound 87, (S)-N-(3-((2,3-dihydro-1H-inden-2-yl)amino)-2-hydroxypropyl)-2-methoxy-4-(2-morpholino-2-oxoethyl)benzamide]", "IC50": 2760}, {"smiles": "O=C(NC[C@@H](O)CNC1Cc2ccccc2C1)c1ccc(C(=O)N2CCC3(CCO3)CC2)cc1", "note": "[Compound 88, (S)-N-(3-((2,3-dihydro-1H-inden-2-yl)amino)-2-hydroxypropyl)-4-(1-oxa-7-azaspiro[3.5]nonane-7-carbonyl)benzamide]", "IC50": 229}, {"smiles": "COC(=O)Cc1ccc(C(=O)NC[C@@H](O)CNC2Cc3ccccc3C2)cc1", "note": "[Compound 89, (S)-methyl 2-(4-((3-((2,3-dihydro-1H-inden-2-yl)amino)-2-hydroxypropyl)carbamoyl)phenyl)acetate]", "IC50": 853}, {"smiles": "O=C(NC[C@@H](O)CNC1Cc2ccccc2C1)c1ccc(CC(=O)N2CCOCC2)cc1", "note": "[Compound 90, (S)-N-(3-((2,3-dihydro-1H-inden-2-yl)amino)-2-hydroxypropyl)-4-(2-morpholino-2-oxoethyl)benzamide]", "IC50": 3150}, {"smiles": "O=C(NC[C@H](O)CNC1Cc2ccccc2C1)c1ccc(CC(=O)N2CCCC2)cc1", "note": "[Compound 91, (R)-N-(3-((2,3-dihydro-1H-inden-2-yl)amino)-2-hydroxypropyl)-4-(2-oxo-2-(pyrrolidin-1-yl)ethyl)benzamide]", "IC50": 1230}, {"smiles": "O=C(NC[C@@H](O)CNC1Cc2ccccc2C1)c1ccc(CC(=O)N2CCCC2)cc1", "note": "[Compound 100, (S)-N-(3-((2,3-dihydro-1H-inden-2-yl)amino)-2-hydroxypropyl)-4-(2-oxo-2-(pyrrolidin-1-yl)ethyl)benzamide]", "IC50": 1100}, {"smiles": "CC1(C)COCCN1C(=O)c1ccc(C(=O)NC[C@@H](O)CNC2Cc3ccccc3C2)cc1", "note": "[Compound 102, (S)-N-(3-((2,3-dihydro-1H-inden-2-yl)amino)-2-hydroxypropyl)-4-(3,3-dimethylmorpholine-4-carbonyl)benzamide]", "IC50": 482}, {"smiles": "O=C(NC[C@@H](O)CNC1Cc2ccccc2C1)c1ccc(C(=O)N2CCOCC23CCC3)cc1", "note": "[Compound 104, (S)-N-(3-((2,3-dihydro-1H-inden-2-yl)amino)-2-hydroxypropyl)-4-(8-oxa-5-azaspiro[3.5]nonane-5-carbonyl)benzamide]", "IC50": 514}, {"smiles": "NC(CNC(=O)c1ccc(C(=O)N2C3CCC2COC3)cc1)CNC1Cc2ccccc2C1", "note": "(stereo not drawn) [Compound 106, N-(2-Amino-3-((2,3-dihydro-1H-inden-2-yl)amino)propyl)-4-(3-oxa-8-azabicyclo[3.2.1]octane-8-carbonyl)benzamide]", "IC50": 24300}, {"smiles": "NC(=O)C(CNC(=O)c1ccc(C(=O)N2CCOCC2)cc1)CNC1Cc2ccccc2C1", "note": "(stereo not drawn) [Compound 107, N-(3-Amino-2-(((2,3-dihydro-1H-inden-2-yl)amino)methyl)-3-oxopropyl)-4-(morpholine-4-carbonyl)benzamide]", "IC50": 52200}, {"smiles": "O=C(NCC(CO)CNC1Cc2ccccc2C1)c1ccc(C(=O)N2CCOCC2)cc1", "note": "(stereo not drawn) [Compound 108, N-(3-((2,3-Dihydro-1H-inden-2-yl)amino)-2-(hydroxymethyl)propyl)-4-(morpholine-4-carbonyl)benzamide]", "IC50": 21200}, {"smiles": "CS(=O)(=O)N1CC(Nc2cc(C(=O)NC[C@@H](O)CNC3Cc4ccccc4C3)ccn2)C1", "note": "[Compound 109, (S)—N-(3-((2,3-Dihydro-1H-inden-2-yl)amino)-2-hydroxypropyl)-2-((1-(methylsulfonyl)azetidin-3-yl)amino)isonicotinamide bis 2,2,2-trifluoroacetic acid salt]", "IC50": 11100}, {"smiles": "CC(=O)N1CC(Nc2cc(C(=O)NC[C@@H](O)CNC3Cc4ccccc4C3)ccn2)C1", "note": "[Compound 110, (S)-2-((1-Acetylazetidin-3-yl)amino)-N-(3-((2,3-dihydro-1H-inden-2-yl)amino)-2-hydroxypropyl)isonicotinamide bis 2,2,2-trifluoroacetic acid salt]", "IC50": 166}, {"smiles": "CN(C[C@H](O)CNC(=O)c1ccc(C(=O)N2CCOCC2)cc1)C1Cc2ccccc2C1", "note": "[Compound 112, (R)—N-(3-((2,3-Dihydro-1H-inden-2-yl)(methyl)amino)-2-hydroxypropyl)-4-(morpholine-4-carbonyl)benzamide]", "IC50": 9410}, {"smiles": "O=C(NC[C@@H](O)CNC1Cc2ccccc2C1)c1cccc2ncsc12", "note": "[Compound 113, (S)-N-(3-((2,3-dihydro-1H-inden-2-yl)amino)-2-hydroxypropyl) benzo[d]thiazole-7-carboxamide]", "IC50": 4150}, {"smiles": "CCOc1nc(C(=O)N2C3CCC2COC3)ccc1C(=O)NC[C@@H](O)CNC1Cc2ccccc2C1", "note": "[Compound 115, 6-(3-oxa-8-azabicyclo[3.2.1]octane-8-carbonyl)-N-((S)-3-((2,3-dihydro-1H-inden-2-yl)amino)-2-hydroxypropyl)-2-ethoxynicotinamide]", "IC50": 305}]}]}
